By IC50 is commonly meant the concentration that inhibits the measured activity by half. A low value points to greater potency.

Our source for the IC50 values is BindingDB's records for doi:10.7270/Q2T43RPN (Burnham Center For Chemical Genomics, 2012).

The test addresses T1, Tyrosine-protein phosphatase non-receptor type 11 (Homo sapiens, UniProt Q06124).
T1 sequence (Q06124 whole entry): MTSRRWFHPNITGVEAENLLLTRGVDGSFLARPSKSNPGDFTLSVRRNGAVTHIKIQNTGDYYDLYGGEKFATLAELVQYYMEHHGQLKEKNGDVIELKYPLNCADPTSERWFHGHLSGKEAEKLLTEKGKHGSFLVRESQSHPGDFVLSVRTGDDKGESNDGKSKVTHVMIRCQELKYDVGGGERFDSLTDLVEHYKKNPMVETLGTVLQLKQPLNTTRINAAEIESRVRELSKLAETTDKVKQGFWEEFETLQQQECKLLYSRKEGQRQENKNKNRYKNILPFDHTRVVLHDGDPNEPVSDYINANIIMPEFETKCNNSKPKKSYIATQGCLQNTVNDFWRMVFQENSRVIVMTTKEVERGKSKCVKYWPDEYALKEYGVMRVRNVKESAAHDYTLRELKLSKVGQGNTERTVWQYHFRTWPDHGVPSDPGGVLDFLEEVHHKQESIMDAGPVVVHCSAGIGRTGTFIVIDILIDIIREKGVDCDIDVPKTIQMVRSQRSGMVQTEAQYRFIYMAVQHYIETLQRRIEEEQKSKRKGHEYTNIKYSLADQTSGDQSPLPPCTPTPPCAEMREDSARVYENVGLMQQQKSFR
As to the kind of experiment: SHP2 phosphatase inhibition, dose response, selectivity assay for STEP inhibitor project, biochemical (AID 602367).

In turn, `S=C1N=C(C23CC4CC(CC(C4)C2)C3)CC(c2ccc3c(c2)OCO3)N1` (stereo not given) had an IC50 of 15 µM.
`CCOc1cc(CN=Nc2nc(O)c(CC(=O)O)s2)ccc1OCc1ccc(Cl)cc1Cl` [2-[2-[(N''E)-N''-[4-(2,4-dichlorobenzyl)oxy-3-ethoxy-benzylidene]hydrazino]-4-keto-2-thiazolin-5-yl]acetic acid] registered an IC50 of 2.2 µM.
In turn, `C=c1c(O)c(O)c(=C2C(=O)C(=O)C(C)C(=O)C2=O)c(O)c1O` (stereo not given) [(3E)-5-hydroxy-6-methyl-3-(2,3,5-trihydroxy-4-methyl-6-oxo-1-cyclohexa-2,4-dienylidene)cyclohex-5-ene-1,2,4-trione] had an IC50 below 0.16 µM.
To `O=C1C(=O)N(CCCO)C(c2ccc(Br)cc2)C1C(=O)c1ccc(Br)cc1` (stereo not given) [(4E)-5-(4-bromophenyl)-4-[(4-bromophenyl)-oxidanyl-methylidene]-1-(3-oxidanylpropyl)pyrrolidine-2,3-dione] belongs 58.9 µM; to `S=C1N=C2C(=C3SCCS3)CCCC2C(c2ccccc2)N1` (stereo not given) [MLS000516376], 5.27 µM; to `CCN(CC)P(=O)(NC(=O)C(Cl)(Cl)Cl)N(CC)CC` [MLS000564159], 3.91 µM.
To `CSc1ccc(CN=Nc2ccc(S(=O)(=O)Nc3ccccc3C(=O)O)cc2[N+](=O)[O-])cc1` [MLS002245633] belongs 1.11 µM; to `O=C(N/N=C/C1C=CC=CC1=O)c1cccc([N+](=O)[O-])c1` (stereo not given) [MLS002667988], 2.39 µM; to `COc1ccc(OC)c(-n2c(O)c3o[nH]c(-c4ccccc4Cl)c-3c2=O)c1` [SMR000046218], 0.469 µM.
As to `COc1ccc(CN=Nc2nc(O)c(CC(=O)O)s2)cc1OCc1ccc(Cl)cc1Cl` [[2-({3-[(2,4-dichlorobenzyl)oxy]-4-methoxybenzylidene}hydrazono)-4-oxo-1,3-thiazolidin-5-yl]acetic acid], the midpoint of inhibition, the IC50, lay at 4.42 µM.
